Laboratory results published in patent US20250177479A1, “DEPSIPEPTIDE-BASED AMPHIPHILIC BULIDING BLOCK TO INHIBIT PROTEIN-PROTEIN INTERACTIONS, NANOSTRUCTURE COMPRISED THEREOF AND USES THEREOF” (INDUSTRY-ACADEMIC COOPERATION FOUNDATION, YONSEI UNIVERSITY, priority 2023, published 2025).

What was measured:
p53 = assay: Immunoblotting kinetic analysis of MDM2 and p53; format: cell-based, human; settings: 10 μM; HCT116 p53+/+ cells
Method: The cells were harvested, washed with cold PBS, and lysed with a radio-immunoprecipitation assay (RIPA) buffer. The cell lysate was centrifuged at 4° C. and 13,000 rpm for 20 minutes, and the supernatant was collected. The protein amount of the lysate was quantified using a bicinchoninic acid (BCA) protein assay kit (Pierce Inc., USA). The supernatant of the cell lysate was loaded on 10% sodium dodecyl sulfate-polyacrylamide gel electrophoresis (SDS-PAGE) to separate proteins, which were transferred to a polyvinylidene fluoride (PVDF) membrane, and the membrane was treated with 5% skim milk in tris-buffered saline with Tween® 20 (TBS-T) buffer (room temperature), and after one hour, washed with TBS-T buffer (2×) for one minute. After treatment with primary antibodies (specific primary antibodies) (p53, MDM2, or vinculin), the membrane was incubated overnight at 4° C. The membrane was washed with TBS-T for 10 minutes (5×), treated with horseradish peroxidase (HRP)-conjugated secondary antibodies (room temperature, 1 h), and then washed with TBS-T for 10 minutes (5×) and analyzed using a LAS 3000 luminescent image analyzer (Fujifilm Co., LTD., Japan).

HCT116 p53+/+ cells = assay: WST-8 cell viability assay in HCT116 p53+/+ cells; format: cell-based, human; settings: 0, 5, 10, 15, 20 μM, 12 to 24 hours
Method: First, HCT116 p53^+/+ cells were cultured in a thermos-hygrostat incubator at 37° C., 5% CO2 in DMEM containing 10% FBS and 1% Pen-Step.
For a WST-8 cell viability assay, the HCT116 p53+/+ cells were seeded at a density of 2×10^4 cells/well in […] culture medium in a 96-well plate and cultured for 24 hours. […] After culturing at 37° C. for 12 to 24 hours, WST-8 reagent (Abcam Inc., UK) was added to each well, and culture was performed for 30 minutes. The absorbance at […] was measured using a microplate reader (PerkinElmer Inc., USA).

HCT116 cells = assay: In vivo anticancer effect in HCT116 xenografted mice; settings: 76.9 nmol/100 μl saline i.v., once every two days, five times; 14 days
Method: Body weight and tumor volume of each group were measured every 0, 2, 4, 6, 8, 10, 12, and 14 days.

[1] = Biodistribution of Cy5.5-labeled SdPN in xenografted mice (fluorescence, IVIS)
Method: In order to verify the tumor specificity of the SdPN according to the present invention, an analysis was performed using a cancer animal model (xenograft) in which human cancer cells were cultured in immunodeficient mice. Specifically, a mixture of 50 mL of Matrigel (Corning, NY, USA) and HCT116 cells (5× 10^6 cells in 50 mL of saline) was subcutaneously injected into the hind legs of 5-week-old nu/nu male nude mice (nu/nu athymic). The tumor volume was analyzed using a caliper [tumor volume=(major axis)×(minor axis)^2/2]. […] At this time, the dose was 100 μl of saline injected at a concentration of 400 μM based on Cy5.5 (40 nmol/100 μl saline).
Fluorescence images were obtained at various times after the intravenous injection.
The isolated cancer tissues were treated with 4% paraformaldehyde, and their moisture content was assessed with sucrose.

[2] = 24 hours after i.v. administration, Cy5.5-labeled

removal over time (IVIS) ([1]; 40 nmol/100 μl saline i.v.)	accumulation in cancer tissues (frozen sections) [1, 2]	Compound	PPI inhibition action speed (p53)	viability of HCT116 p53+/+ cells (cancer cell apoptotic effect) (HCT116 p53+/+ cells)	cancer growth (HCT116 cells)	localization to the cancer area (IVIS) ([1]; 40 nmol/100 μl saline i.v.)	accumulation in major organs and cancer tissues (ex vivo fluorescence) [1, 2]	fluorescence of tail vein blood over time (in vivo retention) ([1]; after i.v. administration, Cy5.5-labeled)
–	–	COc1cc(C(=O)O)ccc1NC(=O)[C@@H]1N[C@@H](CC(C)(C)C)[C@](C#N)(c2ccc(Cl)cc2F)[C@H]1c1cccc(Cl)c1F [idasanutlin]	three	higher anticancer effect than that of the SdPN (6:4) of Example 8	significantly inhibited	–	–	–
rapidly removed over time	no significant accumulation	sulfo-cyanine 5.5 [Cy5.5]	–	–	–	failed to be specifically localized to the cancer area	significant accumulation neither in major organ tissues nor cancer tissues	completely eliminated within a short time
